The results in this text go back to ChEMBL document CHEMBL1201862, “PubChem BioAssay data set” (2004).

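Briefly, cells in 96-well plates were exposed to five compound concentrations for 48 h, and endpoints were estimated by linear interpolation. The concentration for 50% growth inhibition is given as GI50.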 Calls of active or inactive are those of the source. Cut-off read from the data, not from the text of the source: active = GI50 up to about 1.1 µM and inactive = higher.

By GI50 is commonly meant the concentration that inhibits growth by half.

Some test systems named below: A498; COLO 205; DU-145; HCC 2998; HCT-116; HOP-92; HT-29; IGROV-1; LOX IMVI; MDA-MB-435; MDA-N; Malme-3M; NCI/ADR-RES; OVCAR-3; PC-3; SK-MEL-2; SW-620; TK-10; UACC-62; CCRF-CEM.
What all share (assay): DTP human tumour cell line panel, 48 h

For `CN(C)C=O.O=C(Nc1nnn[nH]1)c1nc(O)cc(-c2ccccc2)n1`, the GI50 with A498, in the experiment with COLO 205, with DU-145, with HCC 2998, with HCT-116 and with HOP-92 was > 100 µM (inactive) in each case. Also, the GI50 in the experiment with HT-29, in the experiment on IGROV-1, in the experiment on LOX IMVI, in the experiment on MDA-MB-435, with MDA-N and in the experiment with Malme-3M was > 100 µM (inactive) in each case. The GI50 in the experiment on NCI/ADR-RES, in the experiment on OVCAR-3, in the experiment on PC-3, in the experiment with SK-MEL-2, in the experiment on SW-620 and in the experiment with TK-10 was > 100 µM (inactive) each time. Besides, the GI50 with UACC-62 was > 100 µM (inactive).
For the compound `C[n+]1c2ccccc2c2/c(=C\C#N)c3ccccc3n21`, the GI50 is 20 µM (inactive) in the experiment with A498; 3.66 µM (inactive) in the experiment with CCRF-CEM; 1.56 µM (inactive) in the experiment on COLO 205; 6.75 µM (inactive) in the experiment with DU-145; 1.61 µM (inactive) with HCC 2998; 3.03 µM (inactive) in the experiment on HCT-116. Besides, the GI50 is 3.82 µM (inactive) in the experiment with HT-29; 3 µM (inactive) with IGROV-1; 3.48 µM (inactive) in the experiment with LOX IMVI; 5.43 µM (inactive) with MDA-MB-435; 3.7 µM (inactive) in the experiment on MDA-N; 2.53 µM (inactive) in the experiment on Malme-3M. Moreover, the GI50 in the experiment on NCI/ADR-RES was 32 µM (inactive); in the experiment on OVCAR-3, 3.44 µM (inactive); in the experiment with PC-3 it was 2.86 µM (inactive); in the experiment with SK-MEL-2, 3.49 µM (inactive); with SW-620, 3.07 µM (inactive); with TK-10 it was 1.69 µM (inactive). In the experiment with UACC-62, the GI50 is 10.7 µM (inactive).
For `CC1(O)CC(C(F)(F)F)(C(F)(F)F)OC1=O` (stereo not given), the GI50 in the experiment on A498, in the experiment on CCRF-CEM, with COLO 205, in the experiment on DU-145, in the experiment with HCC 2998 and with HCT-116 was > 10 µM (inactive) throughout. The GI50 with HOP-92, in the experiment on HT-29, in the experiment on IGROV-1, with LOX IMVI, in the experiment with MDA-MB-435 and with MDA-N was > 10 µM (inactive) in each case. The GI50 in the experiment with Malme-3M, in the experiment with NCI/ADR-RES, in the experiment on OVCAR-3, in the experiment with PC-3, in the experiment on SW-620 and in the experiment on TK-10 was > 10 µM (inactive) in each case. In addition, in the experiment with UACC-62, the GI50 was > 10 µM (inactive).
As to `CCCCCC(C)SC1(C(=O)OC)CC(OC(C)=O)C(NC(C)=O)C([C@H](OC(C)=O)[C@@H](COC(C)=O)OC(C)=O)O1` (stereo not given in full), the GI50 is 67.1 µM (inactive) in the experiment on A498; > 100 µM (inactive) with DU-145; 30.2 µM (inactive) in the experiment with HCC 2998; 43.9 µM (inactive) with HCT-116; 44.4 µM (inactive) with HOP-92; 22.5 µM (inactive) in the experiment on HT-29. Also, the GI50 is > 100 µM (inactive) in the experiment with IGROV-1; 70.1 µM (inactive) with MDA-MB-435; 90.6 µM (inactive) in the experiment on MDA-N; 44.1 µM (inactive) with Malme-3M; > 100 µM (inactive) in the experiment on NCI/ADR-RES; 90.4 µM (inactive) in the experiment on OVCAR-3. Further, the GI50 in the experiment on PC-3 was 67.3 µM (inactive); with SK-MEL-2 it was 0.245 µM (active); in the experiment on SW-620 it was > 100 µM (inactive); with TK-10 it was > 100 µM (inactive).
For `COc1ccccc1C1(c2c(OC(C)C)c(=O)c2=O)SCCCS1`, the GI50 in the experiment with A498 was > 100 µM (inactive); in the experiment with CCRF-CEM it was 40.5 µM (inactive); in the experiment with COLO 205, > 100 µM (inactive); in the experiment with DU-145 it was > 100 µM (inactive); in the experiment on HCT-116, > 100 µM (inactive); in the experiment on HOP-92 it was > 100 µM (inactive). Besides, the GI50 in the experiment on HT-29, with IGROV-1, with LOX IMVI, with MDA-MB-435, in the experiment with MDA-N and with NCI/ADR-RES was > 100 µM (inactive) in each case. Further, the GI50 with OVCAR-3, in the experiment with PC-3, in the experiment on SK-MEL-2, with SW-620, in the experiment on TK-10 and in the experiment on UACC-62 was > 100 µM (inactive) in each case.
Regarding `O=[N+]([O-])c1ccc(Oc2c(Cl)cc(S(=O)(=O)N/C(=N\O)Nc3ccc(Cl)cc3)cc2Cl)c(Cl)c1`, the GI50 in the experiment with A498 was 12.7 µM (inactive); in the experiment on CCRF-CEM, 27.3 µM (inactive); in the experiment on COLO 205, 18.8 µM (inactive); in the experiment with DU-145, 13.6 µM (inactive); in the experiment with HCC 2998, 16 µM (inactive); in the experiment on HCT-116, 13.4 µM (inactive). Besides, the GI50 was 12.8 µM (inactive) in the experiment with HOP-92; 16.9 µM (inactive) in the experiment with HT-29; 17.1 µM (inactive) with LOX IMVI; 16.6 µM (inactive) with MDA-MB-435; 15.6 µM (inactive) in the experiment with MDA-N; 14.6 µM (inactive) in the experiment with Malme-3M. The GI50 with NCI/ADR-RES is 21.7 µM (inactive); in the experiment on OVCAR-3, 12.2 µM (inactive); in the experiment on PC-3, 13.3 µM (inactive); with SK-MEL-2, 17 µM (inactive); in the experiment on SW-620 it was 24.9 µM (inactive); with TK-10 it was 16 µM (inactive). Also, the GI50 in the experiment on UACC-62 was 14.4 µM (inactive).
Take `CC(=O)O[C@H]1C(=O)[C@@]2(C)[C@H]([C@H](OC(=O)c3ccc(F)cc3)[C@]3(O)C[C@H](OC(=O)[C@H](O)[C@@H](NC(=O)c4ccccc4)c4ccccc4)C(C)=C1C3(C)C)[C@]1(OC(C)=O)CO[C@@H]1C[C@@H]2O`: the 50% growth inhibitory concentration (GI50) with A498 is 0.202 µM (active); in the experiment with CCRF-CEM, 0.00819 µM (active); in the experiment on COLO 205, 0.0108 µM (active); with DU-145, 0.0395 µM (active); with HCC 2998, 0.0107 µM (active); with HCT-116, 0.00608 µM (active). The 50% growth inhibitory concentration (GI50) in the experiment on HT-29 is 0.00678 µM (active); in the experiment on IGROV-1, 0.0233 µM (active); with LOX IMVI, 0.00828 µM (active); with MDA-MB-435 it was 0.0025 µM (active); with MDA-N, 0.0025 µM (active); with Malme-3M it was 0.0127 µM (active). Further, the GI50 in the experiment on NCI/ADR-RES is 9.84 µM (inactive); with OVCAR-3, 0.00557 µM (active); in the experiment on PC-3, 0.0112 µM (active); in the experiment on SK-MEL-2 it was 0.0597 µM (active); with SW-620 it was 0.0065 µM (active); in the experiment on TK-10 it was 0.416 µM (active). Moreover, the GI50 with UACC-62 is 0.0199 µM (active).
Regarding `O=C(O)Cn1ncn(NC(=O)Cc2ccccc2)c1=S`, the GI50 in the experiment with A498, in the experiment with CCRF-CEM, in the experiment on COLO 205, in the experiment on DU-145, with HCC 2998 and in the experiment with HCT-116 was > 10 µM (inactive) throughout. Besides, the GI50 in the experiment with HOP-92, in the experiment on HT-29, in the experiment on IGROV-1, with LOX IMVI, in the experiment on MDA-MB-435 and in the experiment on MDA-N was > 10 µM (inactive) each time. Besides, the GI50 in the experiment with Malme-3M, in the experiment with NCI/ADR-RES, with OVCAR-3, in the experiment with PC-3, with SW-620 and with TK-10 was > 10 µM (inactive) in each case. Also, the GI50 in the experiment on UACC-62 was > 10 µM (inactive).
Take `CC12CCC(C1)C(C)(C)C2OC(=O)c1ccccc1C(=O)O` (stereo not given): the GI50 in the experiment on A498, in the experiment with COLO 205, with DU-145, in the experiment on HCC 2998, with HCT-116 and in the experiment with HOP-92 was > 100 µM (inactive) in each case. The GI50 in the experiment with HT-29, in the experiment with IGROV-1, with LOX IMVI, in the experiment on MDA-MB-435, with MDA-N and in the experiment with Malme-3M was > 100 µM (inactive) each time. Besides, the GI50 in the experiment with NCI/ADR-RES, in the experiment with PC-3, in the experiment on SK-MEL-2, in the experiment with SW-620, in the experiment with TK-10 and with UACC-62 was > 100 µM (inactive) in each case.
As to `CN(C)CCN1C(=O)N(CCN(C)C)c2c3cc(O)ccc3nc3c([N+](=O)[O-])ccc1c23`, the GI50 was 15.7 µM (inactive) in the experiment on A498; 0.538 µM (active) in the experiment on CCRF-CEM; 10.4 µM (inactive) in the experiment on COLO 205; 10.7 µM (inactive) in the experiment on DU-145; 8.73 µM (inactive) in the experiment on HCC 2998; 5.58 µM (inactive) in the experiment with HCT-116. Also, the GI50 in the experiment with HOP-92 was 15.3 µM (inactive); in the experiment on HT-29, 6.08 µM (inactive); with IGROV-1 it was 2.81 µM (inactive); with LOX IMVI, 10.7 µM (inactive); with MDA-MB-435 it was 14.8 µM (inactive); in the experiment on MDA-N, 13 µM (inactive). Also, the GI50 with Malme-3M was 15.8 µM (inactive); in the experiment with NCI/ADR-RES, 19.4 µM (inactive); in the experiment with PC-3, 8.63 µM (inactive); with SK-MEL-2 it was 24.8 µM (inactive); in the experiment on SW-620 it was 4.92 µM (inactive); in the experiment with TK-10, 10.6 µM (inactive). Also, the GI50 in the experiment on UACC-62 was 15.9 µM (inactive).
